Assay results taken from patent publication US9096544B2, “Therapeutic compounds” (Wayne State University, priority 2009, dated 2015).

Assays:
[1] = Test G: effect on body weight of repeated escalating dosing (toxicity, MTD); format: in vivo; details: IV once a day for 7 days, 20 mg/kg increased by 25% each dose; two female mice per group
Protocol: Mice were treated with escalating doses of either compound 16 or 3-Cl-AHPC to establish the difference in toxicity (MTD) between these compounds as measured by decreased body weight (FIG. 8). Two groups of mice, each consisting of two female ICR-SCIDS mice, were injected IV with either compound 16 or 3-Cl-AHPC once a day for 7 days. The initial IV injection of 20 mg/kg for each compound was increased by 25% for each ensuing dose. Body weights were measured on each of the seven days with the final body weights determined 48 hours post final dose. […] The final weight for this mouse was recorded 2 hours after death.

TF(v-SRC) tumors = test: Test F: inhibition of growth of palpable TF(v-SRC) tumors; format: in vivo, SCID mice; details: palpable tumors of 100 mg
Protocol: FIG. 7 illustrates compound 16 inhibited TF(v-SRC) proliferation and growth in SCID mice. NOD SCID mice were randomized into two groups of eight. Each mouse was injected with 1×10^7TF(v-SRC) cells and 24 h later mice were either treated intravenously with compound 16 (20 mg/kg) or vehicle on a Monday, Wednesday and Friday schedule for five weeks. Mice were monitored for toxicity and survival. A) Survival of TF(vSRC) inoculated mice treated with compound 16, and B) absence of weight loss in compound 16 treated SCID mice. C) compound 16 inhibited palpable TF(v-SRC) growth in SCID mice. TF(v-SRC) cells were grown subcutaneously in a maintenance SCID mouse. The tumor was harvested and approximately 20 mg of tumor was subcutaneously injected utilizing a trochar into each flank of a SCID mouse. The tumors were then allowed to reach a size of 100 mg. The mice were randomized into three groups of 8 mice. […]
Non-obese diabetic-severe combined immunodeficiency (NOD-SCID) and ICR-SCID mice were obtained from Jackson Laboratories (Bar Harbor, Me.) and Taconic Farms (Germantown, N.Y.), respectively. […] Animals with equal tumor weights determined as described previously (Zhang Y. et al., Blood. 2002; 100:2917-2925) were assigned to three experimental arms: 1) control (vehicle treated), 2) subcutaneously treated with compound 16, and 3) intravenously treated with compound 16. […]

[2] = test system: poly(ADP-ribose)polymerase (PARP); test: Test C: PARP cleavage; format: cell-based; details: FFMA-AML and TF(v-SRC) cells
Text: FIG. 5 illustrates compound 16-mediated inhibition of XIAP, c-IAP1, and phospho-Bad expression in FFMA-AML and TF(v-SRC) cells accompanied by the induction of PARP cleavage. A) XIAP, c-IAP and phospho-Bad protein expression following exposure to compound 16 assessed by Western blot. B)-D) Protein expression levels quantified using laser densitometry. The expression levels of XIAP, c-IAP1 and phospho-Bad were normalized to the respective α-tubulin level and compared to their relative levels in the controls, which were given an arbitrary value of 1.
The proteins c-IAP1, c-IAP2, and XIAP bind caspases resulting in inhibition of caspase activity (Jin H-S. et al., Cancer Res. 2009; 69:[…]). […] The Bcl-2 family member Bad enhances apoptosis and is inactivated through phosphorylation to phosphorylated Bad (Eisenmann K. M. et al., Cancer Res. 2003; 63:8330-8337). To assess modulation of anti-apoptotic protein expression during the induction of apoptosis in the AML cells by compound 16, the expression of XIAP, c-IAP1 and phospho-Bad as well as cleavage of the DNA-damage repair poly(ADP-ribose)polymerase (PARP) was assessed following exposure of the AML cells to compound 16.

TF(v-SRC) cells = test: Test E: inhibition of TF(v-SRC) cell growth in SCID mice (systemic model); format: in vivo; details: 20 mg/kg intravenously every other day, 15 doses
Protocol: FIG. 7 illustrates compound 16 inhibited TF(v-SRC) proliferation and growth in SCID mice. NOD SCID mice were randomized into two groups of eight. Each mouse was injected with 1×10^7TF(v-SRC) cells and 24 h later mice were either treated intravenously with compound 16 (20 mg/kg) or vehicle on a Monday, Wednesday and Friday schedule for five weeks. Mice were monitored for toxicity and survival. A) Survival of TF(vSRC) inoculated mice treated with compound 16, and B) absence of weight loss in compound 16 treated SCID mice. C) compound 16 inhibited palpable TF(v-SRC) growth in SCID mice. TF(v-SRC) cells were grown subcutaneously in a maintenance SCID mouse. The tumor was harvested and approximately 20 mg of tumor was subcutaneously injected utilizing a trochar into each flank of a SCID mouse. The tumors were then allowed to reach a size of 100 mg. The mice were randomized into three groups of 8 mice. Groups were treated either intravenously or subcutaneously at a distant site from the tumor with 20 mg/kg of compound 16 on a Monday, Wednesday and Friday schedule for 12 injections (4 weeks). Control mice were treated intravenously with vehicle.
Non-obese diabetic-severe combined immunodeficiency (NOD-SCID) and ICR-SCID mice were obtained from Jackson Laboratories (Bar Harbor, Me.) and Taconic Farms (Germantown, N.Y.), respectively. A) FFMA-AML and TF(v-SRC) systemic models: NOD-SCID and ICR-SCID mice (4 to 5 weeks old) were injected with either FFMA-AML or TF(v-SRC) cells intravenously. Treatment with either vehicle, 3-Cl-AHPC or compound 16 (the compound of Example 1) was instituted the following day. Once symptoms such as diarrhea, dehydration, weight loss, ascites, paralysis or general weakness became evident, mice were euthanized. B) TF(v-SRC) subcutaneous mouse model. ICR-SCID mice were trocared subcutaneously bilaterally with TF(v-SRC) tumor fragments. Animals with equal tumor weights determined as described previously (Zhang Y. et al., Blood. 2002; 100:2917-2925) were assigned to three experimental arms: 1) control (vehicle treated), 2) subcutaneously treated with compound 16, and 3) intravenously treated with compound 16. The percent increase in the host life-span (% ILS) of the FFMA-AML and TF(v-SRC) bearing mice was calculated by subtracting the […] divided by the median day of death of the AML-bearing vehicle treated mice. In order to determine the efficacy of the 3-Cl-AHPC and compound 16, survival distribution of the 3-Cl-AHPC or compound 16-treated (T) or vehicle (C) groups were compared using the log-rank test. Survival was characterized as the duration of the animal's life span 24 h after the initiation of the xenograft until an observed event (euthanasia or death). A p-value of less than 5% (p<0.05) was considered statistically significant.
The ability of compound 16 to inhibit the growth of TF(v-SRC) cells in SCID mice was determined. SCID mice were injected with 10 million TF(v-SRC) cells. The mice were treated intravenously with compound 16 (20 mg/kg) or vehicle every other day for a total of 15 doses. […] TF(v-SRC) growth in the SCID mice was documented by flow cytometry.

Structure (SMILES)	mortality [1]	reduction in TF(v-SRC) growth (TF(v-SRC) tumors; 20 mg/kg intravenously every other day) [%]	reduction in TF(v-SRC) growth (TF(v-SRC) tumors; 20 mg/kg subcutaneously at a remote site every other day) [%]	cleavage of PARP [2]	clinical signs of toxicity (TF(v-SRC) cells)	length of survival (TF(v-SRC) cells)	malignant cells by flow cytometry (lymph node/tumor specimens) (TF(v-SRC) cells)	treated mice with no evidence of leukemia (TF(v-SRC) cells) [%]	weight loss compared to vehicle-treated mice (TF(v-SRC) cells)
O=C(O)C=Cc1ccc(-c2ccc(O)c(C34CC5CC(CC(C5)C3)C4)c2)c(Cl)c1 [Compound 3-Cl-AHPC, 4-[3-(1-adamantyl)-4-hydroxyphenyl]-3-chlorocinnamic acid, reference compound]	One of the mice in the group treated with 3-Cl-AHPC died 48 hours after the final injection	–	–	–	–	–	–	–	–
O=C(O)/C=C/c1cnc(-c2ccc(O)c(C34CC5CC(CC(C5)C3)C4)c2)nc1 [Compound 16, (E)-3-[2-(3-(1-Adamantyl)-4-hydroxyphenyl)-5-pyrimidinyl]-2-propenoic acid]	–	55	55	cleavage of PARP was noted	did not display any evidence of diarrhea, dehydration, scruffy coat, or decreased physical activity	marked increase in the length of survival	No malignant cells were identified	87	did not display any evidence of weight loss
